Target: T1, HCV NS3/4A protease complex, BMS strain (genotype 1a) (UniProt P27958, C1454S/C1711G, species not given/STRAIN_BMS)
T1 construct: b1001: DNA encoding the recombinant HCV NS3/4A protease complex (amino acids 1027 to 1711) ... a three-lysine solubilizing tail was added at the 3′-end of the NS4A coding region; fused on or other part: Three-lysine solubilising tail at the C-terminus of NS4A; A His tag is implied by the pET21b vector and Ni-NTA purification
Assay: Recombinant HCV NS3/4A protease complex FRET peptide assay, BMS strain
Format: biochemical
Conditions: NS3/4A BMS Strain; activity range classes
Excerpt: Recombinant HCV NS3/4A Protease Complex FRET Peptide Assay
The purpose of this in vitro assay was to measure the inhibition of HCV NS3 protease complexes, derived from the BMS strain, H77C strain or J416S strain, as described below, by compounds of the present invention. This assay provides an indication of how effective compounds of the present invention would be in inhibiting HCV proteolytic activity.
Serum from an HCV-infected patient was obtained from Dr. T. Wright, San Francisco Hospital. An engineered full-length cDNA (compliment deoxyribonucleic acid) template of the HCV genome (BMS strain) was constructed from DNA fragments obtained by reverse transcription-PCR (RT-PCR) of serum RNA (ribonucleic acid) and using primers selected on the basis of homology between other genotype 1a strains. From the determination of the entire genome sequence, a genotype 1a was assigned to the HCV isolate according to the classification of Simmonds et al. (See P Simmonds, K A Rose, S Graham, S W Chan, F McOmish, B C Dow, E A Follett, P L Yap and H Marsden, J. Clin. Microbiol., 31(6), 1493–1503 (1993)). […] The infectious clones, H77C (1a genotype) and J4L6S (1b genotype) were obtained from R. Purcell (NIH) and the sequences are published in Genbank (AAB67036, see Yanagi, M., Purcell, R. H., Emerson, S. U. and Bukh, J. Proc. Natl. Acad. Sci. U.S.A. 94(16), 8738–8743 (1997); AF054247, see Yanagi, M., St Claire, M., Shapiro, M., Emerson, S. U., Purcell, R. H. and Bukh, J, Virology 244 (1), 161–172. (1998)).
The H77C and J4L6S strains were used for production of recombinant NS3/4A protease complexes. DNA encoding the recombinant HCV NS3/4A protease complex (amino acids 1027 to 1711) for these strains were manipulated as described by P. Gallinari et al. (see Gallinari P, Paolini C, Brennan D, Nardi C, Steinkuhler C, De Francesco R. Biochemistry. 38(17):5620–32, (1999)). Briefly, a three-lysine solubilizing tail was added at the 3′-end of the NS4A coding region. The cysteine in the P1 position of the NS4A-NS4B cleavage site (amino acid 1711) was changed to a glycine to avoid the proteolytic cleavage of the lysine tag. Furthermore, a cysteine to serine mutation was introduced by PCR at amino acid position 1454 to prevent the autolytic cleavage in the NS3 helicase domain. The variant DNA fragment was cloned in the pET21b bacterial expression vector (Novagen) and the NS3/4A complex was expressed in Escherichia coli strain BL21 (DE3) (Invitrogen) following the protocol described by P. Gallinari et al. (see Gallinari P, Brennan D, Nardi C, Brunetti M, Tomei L, Steinkuhler C, De Francesco R., J. Virol. 72(8):6758–69 (1998)) with modifications. Briefly, NS3/4A expression was induced with 0.5 mM Isopropyl β-D-1-thiogalactopyranoside (IPTG) for 22 hr at 20° C. A typical fermentation (10 L) yielded approximately 80 g of wet cell paste. The cells were resuspended in lysis buffer (10 mL/g) consisting of 25 mM N-(2-Hydroxyethyl)piperazine-N′-(2-Ethane Sulfonic acid) (HEPES), pH7.5, 20% glycerol, 500 mM Sodium Chloride (NaCl), 0.5% Triton-X100, 1 microgram/milliliter (“μg/mL”) lysozyme, 5 mM Magnesium Chloride (MgCl2), 1 ug/ml DnaseI, 5 mM β-Mercaptoethanol (βME), Protease inhibitor—Ethylenediamine Tetraacetic acid (EDTA) free (Roche), homogenized and incubated for 20 mins at 4° C. The homogenate was sonicated and clarified by ultra-centrifugation at 235000 g for 1 hr at 4° C. Imidazole was added to the supernatant to a final concentration of 15 mM and the pH adjusted to 8.0. The crude protein extract was loaded on a Nickel-Nitrilotriacetic acid (Ni-NTA) column pre-equilibrated with buffer B (25 mM HEPES, pH8.0, 20% glycerol, 500 mM NaCl, 0.5% Triton-X100, 15 mM imidazole, 5 mM βME). The sample was loaded at a flow rate of 1 mL/min. The column was washed with 15 column volumes of buffer C (same as buffer B except with 0.2% Triton-X100). The protein was eluted with 5 column volumes of buffer D (same as buffer C except with 200 mM Imidazole). […]

Q: How did the IC50 turn out when `COc1ccc2c(O[C@@H]3C[C@H]4C(=O)N[C@]5(C(=O)O)C[C@H]5/C=C\CCCSC(C)(C)[C@H](NC(=O)OC(C)(C)C)C(=O)N4C3)nccc2c1` [Compound 79, (1S,4R,6S,14R,18R)-7-cis-14-tert-Butoxycarbonylamino-13,13-dimethyl-18-(6-methoxy-isoquinolin-1-yloxy)-2,15-dioxo-12-thia-3,16-diazatricyclo[14.3.0.0^4,6]nonadec-7-ene-4-carboxylic acid] was run?
A: 5000 to 50000 nM

Q: For `COc1ccc2c(OC3CC4C(=O)NC5(C(=O)O)CC5C=CCCCCCC(NC(=O)OC(C)(C)C)C(=O)N4C3)nccc2c1` (stereo not shown) [Compound 17A], which IC50 is on record?
A: < 50 nM

Q: How did the IC50 turn out when `COc1ccc2c(O[C@@H]3C[C@H]4C(=O)N[C@]5(C(=O)O)C[C@H]5/C=C\CCCOC[C@H](NC(=O)OC(C)(C)C)C(=O)N4C3)nccc2c1` [Compound 84, (1S,4R,6S,14S,18R)-7-cis-14-tert-Butoxycarbonylamino-18-(6-methoxyisoquinolin-1-yloxy)-2,15-dioxo-12-oxa-3,16-diazatricyclo[14.3.0.0^4,6]-nonadec-7-ene-4-carboxylic acid] was run?
A: 50 to 500 nM

Q: For `COc1ccc2c(OC3CC4C(=O)NC5(C(=O)O)CC5C=CCCCCC(NC(=O)OC(C)(C)C)C(=O)N4C3)nccc2c1` (stereo not shown) [Compound 143], which IC50 is on record?
A: 50 to 500 nM

Q: `CC(C)(C)OC(=O)N[C@H]1CN(S(=O)(=O)c2ccccc2[N+](=O)[O-])CCC/C=C\[C@@H]2C[C@@]2(C(=O)O)NC(=O)[C@@H]2C[C@@H](Oc3nccc4ccccc34)CN2C1=O` [Compound 144] was tested. Which IC50 did it give?
A: 500 to 5000 nM

Same assay, conditions: NS3/4A BMS strain; activity range symbols

Q: With `CCCC1(S(=O)(=O)NC(=O)[C@@]23C[C@H]2/C=C\CCCCC[C@H](NC(=O)OC(C)(C)C)C(=O)N2C[C@H](Oc4nccc5ccccc45)C[C@H]2C(=O)N3)CC1` [Compound 6, [18-(Isoquinolin-1-yloxy)-2,15-dioxo-4-(1-propyl-cyclopropanesulfonylaminocarbonyl)-3,16-diaza-tricyclo[14.3.0.0^4,6]nonadec-7-en-14-yl]-carbamic acid tert-butyl ester] as the molecule, how does the IC50 read?
A: < 50 nM

Q: Which IC50 does the source give for `CC(C)(C)OC(=O)N[C@H]1CCCCC/C=C\[C@@H]2C[C@@]2(C(=O)NS(=O)(=O)C2CC2)NC(=O)[C@@H]2C[C@@H](Oc3nccc4ccccc34)CN2C1=O` [Compound 4, [4-Cyclopropanesulfonylaminocarbonyl-18-(isoquinolin-1-yloxy)-2,15-dioxo-3,16-diaza-tricyclo[14.3.0.0^4,6]nonadec-7-en-14-yl]-carbamic acid tert-butyl ester] here?
A: < 50 nM

Q: How did the IC50 turn out when `CCCC1(S(=O)(=O)NC(=O)[C@@]23C[C@H]2CCCCCCC[C@H](NC(=O)OC(C)(C)C)C(=O)N2C[C@H](Oc4nccc5ccccc45)C[C@H]2C(=O)N3)CC1` [Compound 7, [18-(Isoquinolin-1-yloxy)-2,15-dioxo-4-(1-propyl-cyclopropanesulfonylaminocarbonyl)-3,16-diaza-tricyclo[14.3.0.0^4,6]nonadec-14-yl]-carbamic acid tert-butyl ester] was run?
A: < 50 nM

Q: `COc1ccc2c(OC3CC4C(=O)NC5(C(=O)NS(=O)(=O)C6(C)CC6)CC5C=CCCCCCC(NC(=O)OC(C)(C)C)C(=O)N4C3)nccc2c1` (stereo not shown) [Compound 53] was tested. Which IC50 did it give?
A: < 50 nM

Q: How did the IC50 turn out when `CCC1(S(=O)(=O)NC(=O)C23CC2C=CCCCSCC(NC(=O)OC(C)C)C(=O)N2CC(Oc4nccc5cc(OC)ccc45)CC2C(=O)N3)CC1` (stereo not shown) [Compound 44] was run?
A: < 50 nM

Q: `COc1ccc2c(OC3C[C@H]4C(=O)N[C@]5(C(=O)NS(=O)(=O)C6CC6)C[C@H]5/C=C\CCCSC[C@H](NC(=O)OC(C)(C)C)C(=O)N4C3)nccc2c1` (stereo partly shown) [Compound 18B, [4-Cyclopropanesulfonylaminocarbonyl-18-(6-methoxy-isoquinolin-1-yloxy)-2,15-dioxo-12-thia-3,16-diaza-tricyclo[14.3.0.0^4,6]nonadec-7-en-14-yl]-carbamic acid tert-butyl ester] was tested. Which IC50 did it give?
A: < 50 nM

Q: `CC1(OC(=O)NC2CCCCCC=CC3CC3(C(=O)NS(=O)(=O)C3CC3)NC(=O)C3CC(Oc4nccc5ccccc45)CN3C2=O)CCCC1` (stereo not shown) [Compound 50] was tested. Which IC50 did it give?
A: < 50 nM

Q: `COc1ccc2c(OC3CC4C(=O)NC5(C(=O)NS(=O)(=O)C6(C)CC6)CC5C=CCCCOC(C)C(NC(=O)NC5CCCC5)C(=O)N4C3)nccc2c1` (stereo not shown) [Compound 69] was tested. Which IC50 did it give?
A: < 50 nM

Q: With `COc1ccc2c(OC3CC4C(=O)NC5(C(=O)NS(=O)(=O)C6CC6)CC5C=CCCCSCC(NC(=O)OC(C)C)C(=O)N4C3)nccc2c1` (stereo not shown) [Compound 74] as the molecule, how does the IC50 read?
A: < 50 nM

Q: For `CC(C)(C)OC(=O)N[C@H]1CCCCCCC[C@@H]2C[C@@]2(C(=O)NS(=O)(=O)C2CC2)NC(=O)[C@@H]2C[C@@H](Oc3nccc4ccccc34)CN2C1=O` [Compound 10, [4-Cyclopropanesulfonylaminocarbonyl-18-(isoquinolin-1-yloxy)-2,15-dioxo-3,16-diaza-tricyclo[14.3.0.0^4,6]nonadec-14-yl]-carbamic acid tert-butyl ester], which IC50 is on record?
A: < 50 nM

Q: For `CC(C)OC(=O)N[C@H]1CCCCC/C=C\[C@@H]2C[C@@]2(C(=O)NS(=O)(=O)C2CC2)NC(=O)[C@@H]2C[C@@H](Oc3nccc4ccccc34)CN2C1=O` [Compound 16, [4-Cyclopropanesulfonylaminocarbonyl-18-(isoquinolin-1-yloxy)-2,15-dioxo-3,16-diaza-tricyclo[14.3.0.0^4,6]nonadec-7-en-14-yl]-carbamic acid isopropyl ester], which IC50 is on record?
A: < 50 nM

Q: Which IC50 does the source give for `COc1ccc2c(OC3CC4C(=O)NC5(C(=O)NS(=O)(=O)C6CC6)CC5C=CCOCCCC(NC(=O)NC5CCCC5)C(=O)N4C3)nccc2c1` (stereo not shown) [Compound 33] here?
A: < 50 nM

Q: Which IC50 does the source give for `CCC1(S(=O)(=O)NC(=O)C23CC2C=CCOCCCC(NC(=O)OC(C)C)C(=O)N2CC(Oc4nccc5cc(OC)ccc45)CC2C(=O)N3)CC1` (stereo not shown) [Compound 37] here?
A: < 50 nM

Q: For `CC(C)(C)OC(=O)N[C@H]1CCCCC/C=C\[C@@H]2C[C@@]2(C(=O)NS(=O)(=O)C2(Cc3ccccc3)CC2)NC(=O)[C@@H]2C[C@@H](Oc3nccc4ccccc34)CN2C1=O` [Compound 5, [4-(1-Benzyl-cyclopropanesulfonylaminocarbonyl)-18-(isoquinolin-1-yloxy)-2,15-dioxo-3,16-diaza-tricyclo[14.3.0.0^4,6]nonadec-7-en-14-yl]-carbamic acid tert-butyl ester], which IC50 is on record?
A: < 50 nM

Q: `COCC(=O)NC1CCCCCC=CC2CC2(C(=O)NS(=O)(=O)C2CC2)NC(=O)C2CC(Oc3nccc4ccccc34)CN2C1=O` (stereo not shown) [Compound 24] was tested. Which IC50 did it give?
A: < 50 nM

Q: For `COc1ccc2c(OC3CC4C(=O)NC5(C(=O)NS(=O)(=O)C6CC6)CC5C=CCOCCCC(NC(=O)OCC(C)(C)C)C(=O)N4C3)nccc2c1` (stereo not shown) [Compound 32], which IC50 is on record?
A: < 50 nM

Q: With `COC(=O)N[C@H]1CCCCC/C=C\[C@@H]2C[C@@]2(C(=O)NS(=O)(=O)C2CC2)NC(=O)[C@@H]2C[C@@H](Oc3nccc4ccccc34)CN2C1=O` [Compound 12, [4-Cyclopropanesulfonylaminocarbonyl-18-(isoquinolin-1-yloxy)-2,15-dioxo-3,16-diaza-tricyclo[14.3.0.0^4,6]nonadec-7-en-14-yl]-carbamic acid methyl ester] as the molecule, how does the IC50 read?
A: < 50 nM
